Columns and labels:
DPPH antioxidant assay = format: biochemical; conditions: 100 μM
Description: The ability of the cannabinoids to act as potential antioxidants was assessed using the 2,2-diphenyl-1-picrylhydrazyl (DPPH) antioxidant assay. The cannabinoids CBDA, CBD, CBDVA, CBDV, CBG, THCV, and the 1:1 CBD:CBDA mixture had the highest antioxidant activities with radical scavenging activities of 38.19%, 48.00%, 43.81%, 44.21%, 44.28%, 45.71%, and 43.74%, respectively.
The 2,2-diphenyl-1-picrylhydrazyl (DPPH) free radical (Alfa Aesar) was prepared at 0.1 mM in ethanol. The cannabinoids were tested at a final concentration of 100 uM. 2 uL of 7.5 mM stock solutions of the cannabinoids to be tested in DMSO were added to 148 uL of 0.1 mM DPPH to achieve a final concentration of 100 μM in the assay. Ascorbic acid (Thermo Scientific) at a final concentration of 10 mg/ml was used as a positive control. The reaction mixture was incubated in the dark at room temperature for 1 hour, the absorbance of the mixture was read at 517 nm using a Spectra Max 5M microplate reader (Molecular Devices, LLC, Sunnyvale, Calif., USA) and the absorbance was converted to percent radical scavenging activity (% RSA) using the following formula: % RSA=[(Absorbance of the control−Absorbance of the sample)/(Absorbance of the control)]×100.
Free radical production occurs when the immune system is activated and antioxidants represent potential effective treatments for inflammatory conditions and autoimmune diseases. […] The DPPH antioxidant assay can be used to measure the ability of a compound to scavenge free radicals by measuring the ability of compounds to hydrogenate and reduce DPPH. The DPPH assay was conducted on CBCA, CBDA, CBDVA, CBGA, CBLA, CBNA, THCVA, and their decarboxylated derivatives as well as the 1:1 CBD:CBDA mixture.

[1] = tested on: cytokine levels in differentiated THP-1 cells treated with LPS; experiment: THP-1 human cellular LPS cytokine assay, four independent experiments, per cytokine; format: cell-based; conditions: LPS 20 ng/mL
[2] = tested on: cytokines induced in mice by LPS; experiment: Mouse LPS cytokine animal model (Example 3), cannabinoids in PB with 5% DMSO; format: in vivo; conditions: 5 mg/kg
Description: This experiment was conducted to compare the ability of CBD, CBDA or the 1:1 equimolar mixture of CBD:CBDA to suppress the induction of cytokines whose expression levels were induced in mice by LPS.
The ability of agents to suppress the immune system can be tested in vivo using an LPS mouse model, in which mice are injected with LPS to cause an immune response (Field et al., 1970; Ghezzi P and Sipe J D, 1988).
Four 20 g female C57BL/6 mice were used per group. The experimental mice were first injected with 0.1 mL of the cannabinoids prepared at 1 mg/mL in phosphate buffer (PB) with 5% DMSO to yield a final dose of 5 mg/kg, followed one hour later by the injection of 0.1 mL of 0.02 mg/mL LPS in PB to yield a final dose of 0.1 mg/kg. Mice injected with 0.1 mL of PB with 5% DMSO and 0.1 mL of PBS served as a non-induced control and mice injected with 0.1 mL of PB with 5% DMSO and 0.1 mL of 0.02 mg/mL LPS in PB served as a LPS untreated control. After allowing two hours for the immune system to be induced by LPS, the mice were then euthanized, heart punctures performed to extract the blood, which was allowed to coagulate on ice for 1 hour before centrifuging to isolate the serum. The levels of 32 of the most common mouse cytokines (Eve Technologies, Calgary, Canada, Table 9) were determined by multi-plex analysis.

[3] = tested on: differentiated U-937 cells; experiment: Human cellular U-937 autophagy induction assay (anti-LC3); format: cell-based
Description: The induction of autophagy was monitored using anti-LC3 antibodies to detect LC3 on the autophagosome in human U-937 pro-monocytic histiocytic lymphoma cells (ATCC, Manassas, Va., USA), which generate morphologies characteristic of macrophages upon induction by various stimuli. U-937 cells were cultured in RPMI-1640 medium with L-glutamine and sodium bicarbonate (Sigma-Aldrich, St Louis, Mo.) supplemented with 10% fetal bovine serum (FBS) and 1% penicillin in 25 cm2 tissue flasks at 37° C. in a 5% CO2 humidified atmosphere and passaged every 2-3 days. U-937 cells were seeded in 96 well plates at 5×10^5 cells/mL and stimulated with 100 ng/mL PMA to induce differentiation for 24 hours. The cells were then treated with the various cannabinoids at 1.0 μM concentrations for 12 hours. 30 μM chloroquine was used as a positive control. After treatment, the cells were fixed using 3.7% formaldehyde in PBS for 15 minutes at room temperature and washed with PBS to remove the fixative. Permeabilization reagent (0.2% Triton X-100 in PBS) (Sigma-Aldrich) was added, the cells were incubated for 15 minutes at room temperature and then the cells were washed with PBS to remove the permeabilization reagent. LC3B rabbit polyclonal antibody (Invitrogen) was added at a final concentration of 0.5 μg/ml for 1 hour at room temperature and the cells were washed with PBS remove the primary antibody. Secondary conjugated goat anti-rabbit polyclonal antibody (Thermo Scientific) was then added at a final concentration of 2.0 μg/ml for 1 hour at room temperature. The cells were washed, Hoechst dye was added to stain the nucleus and the cells were imaged using an Arrayscan VTI high-content screening (HCS) reader (Thermo Scientific) with the appropriate filters and the data was analyzed using the vHCS Scan software.
Chloroquine at a concentration of 30 μM was included as a positive control. The ability to induce autophagy was determined as a percentage with respect to the untreated control.

[4] = tested on: cytokine levels in differentiated THP-1 cells treated with LPS; experiment: THP-1 human cellular LPS cytokine assay, three independent experiments, total averaged suppression
Description: Cells were seeded onto 24-, or 12-well plates and incubated for 48 hours to 72 hours to allow for differentiation. […] Supernatants were collected for quantification of human cytokine levels to assess the cytokine response. Cells remaining after the supernatant collection were tested to ensure they had at least 90% viability as determined by Alamar Blue assays. To conduct the Alamar Blue assays, supernatants were replaced with culture medium containing 1× Alamar Blue reagent and incubated overnight. Cell viability was assessed by measuring relative fluorescent units (RFU) on the SpectraMax M2e microplate reader (Molecular Devices Inc., Sunnyvale, Calif., USA) at Excitation 560 nm and Emission 590 nm. Controls included untreated cells with DMSO at the same concentration as the treated cells, LPS stimulated cells with DMSO at the same concentration as the treated cells and LPS stimulated cell with the various treatments. The levels of 42 of the most common human cytokines (Eve Technologies, Calgary, Canada Table 6) were determined by multi-plex analysis.
For this reason, the level of cytokine suppression was determined for each cytokine by each cannabinoid that was tested and the total averaged suppression for each cannabinoid was determined by dividing the total suppression by the number of the cytokines that were analyzed.

[5] = tested on: cytokines induced in mice by LPS; experiment: Mouse LPS cytokine model, Example 6D, ALA, DHA and EPA omega-3 samples; format: in vivo; conditions: mouse, in vivo
Description: A series of experiments using a mouse LPS cytokine animal model were performed. In the mouse LPS cytokine animal model, mice were injected with LPS, which induced the immune response shortly after the mice were injected with one of the potential anti-inflammatory compounds under evaluation (the “test compound”). The efficacy of the test compound was evaluated based on its ability to reduce expression levels of inflammatory cytokines that were elevated due to the immune response. The test compounds included a cannabinoid, an omega fatty acid, and a cannabinoid-omega fatty acid composition.
The mice were intraperitoneally injected with 0.1 mL of the test compound. One hour later, the mice were intraperitoneally injected with 0.1 mL of LPS in phosphate buffered saline (PBS). Four hours later, a heart puncture was performed and the blood was allowed to clot to generate serum. 0.1 mL of the serum was diluted 1:2 with PBS and stored at −80° C. The serum was then sent to a laboratory where a mouse cytokine array/chemokine array 31-plex (MD31) analysis was performed that analyzed the expression levels of the 32 cytokines/chemokines listed in Table 9, above.
For each considered test compound, the ability of the test compound to suppress each inflammatory cytokine was calculated by determining the percent suppression.
36 female C57BL/6 mice that weighed approximately 20 g each were obtained and allowed to acclimate for one week after arrival with unlimited access to food and water. On the day of the study, the mice were weighed and split into eight groups of four mice each so that the average weight of each group was as close as possible to each other.
All of the omega fatty acid samples that were tested were diluted so the dose was 12.5 mg of total omega fatty acids per mouse. […] The omega fatty acids samples tested included: (1) pollock oil, 456 mg/mL omega unsaturated fatty acids. The pollock oil contained a mixture of anti-inflammatory omega-3, omega-7 and omega-9 unsaturated fatty acids. […] (2) Flaxseed oil, 656 mg/mL anti-inflammatory omega unsaturated fatty acids. The flaxseed oil contained a mixture of anti-inflammatory omega-3 and omega-9 unsaturated fatty acids. The omega-3 and omega-9 unsaturated fatty acids constituted 77.6% and […], respectively, of the anti-inflammatory omega fatty acids contained in the flaxseed oil. A 12.5 mg dose contained 9.7 mg of ALA in the triglyceride form. (3) Mono 2:1 DHA:EPA, 744 mg/mL omega-3 unsaturated fatty acids that were primarily DHA or EPA. A 12.5 mg dose contained 7.81 mg of DHA and 3.91 mg of EPA. The omega-3 unsaturated fatty acids were in the free mono form. […] A 12.5 mg dose contained 3.85 mg of DHA and 7.69 mg of EPA. The omega-3 unsaturated fatty acids were in the free mono form. (5) Tri 2:1 DHA:EPA, 678.9 mg/mL omega-3 unsaturated fatty acids that were primarily DHA or EPA. A 12.5 mg dose contained 7.88 mg of DHA and 3.94 mg of EPA. The omega-3 unsaturated fatty acids were in the triglyceride form. (6) Tri 1:2 DHA:EPA, 678.9 mg/mL omega-3 unsaturated fatty acids that were primarily DHA or EPA. A 12.5 mg dose contained 3.60 mg of DHA and 7.19 mg of EPA. The omega-3 unsaturated fatty acids were in the triglyceride form.

[6] = rats; cited from earlier work

## C=C(C)[C@@H]1CCC(C)=C[C@H]1c1c(O)cc(CCCCC)c(C(=O)O)c1O [CBDA, 2,4-Dihydroxy-3-[(1R,6R)-6-isopropenyl-3-methyl-2-cyclohexen-1-yl]-6-pentylbenzoic acid]
DPPH antioxidant assay
  radical scavenging activity compared to the untreated control: at least two-fold
DPPH antioxidant assay; 1 hour
  % RSA (radical scavenging activity): 38.19%
[1]; 2 µM
  EGF suppression: 5.34%
  FGF-β suppression: 30.37%
  Flt-3L suppression: 47.81%
  G-CSF suppression: 77.66%
  GM-CSF suppression: 43.68%
  IFNγ suppression: 60.44%
  IL-1α suppression: 44.04%
  IL-1β suppression: 53.82%
  IL-4 suppression: 10.49%
  IL-6 suppression: 69.39%
  IL-7 suppression: 37.62%
  IL-10 suppression: 23.20%
  IL-12 p70 suppression: 8.24%
  IL-15 suppression: 47.99%
  IL-18 suppression: 37.34%
  IP-10 suppression: 73.87%
  MCP-1 suppression: 54.97%
  MIP-1β suppression: 47.92%
  TNFα suppression: 28.56%
  TNFβ suppression: 45.83%
[1]
  Average cytokine suppression: 42.43%
[2]
  Average cytokine suppression: 13.71%
  GM-CSF suppression: 27.86%
  IFNγ suppression: 31.60%
  IL-1β suppression: 11.89%
  IL-2 suppression: 7.82%
  IL-6 suppression: 6.09%
  IL-12β p40 suppression: 58.93%
  IL-13 suppression: 4.16%
  IL-17 suppression: 7.86%
  IP-10 suppression: 4.58%
  KC suppression: 18.15%
  LIF suppression: 28.12%
  M-CSF suppression: −51.56%
  MIP-1α suppression: 14.86%
  MIP-1β suppression: 9.12%
  MIP-2 suppression: 20.19%
  TNF-α suppression: 19.69%
[3]; 1.0 μM, 12 hours
  Fluorescence (LC3): 37.64
[3]; Homo sapiens, U-937, 12 h, read-out: Induction of autophagy with respect to the untreated control
  activation at 1 µM: -22%
[4]
  effectiveness at reducing elevated cytokine levels relative to dexamethasone: at least half as effective as dexamethasone
[4]; Homo sapiens, THP-1, 4 h, read-out: % Cytokine Suppression (total averaged)
  inhibition at 2 µM: 37.2%

## CC/C=C\C/C=C\C/C=C\C/C=C\C/C=C\C/C=C\CCC(=O)O [DHA, (4Z,7Z,10Z,13Z,16Z,19Z)-docosa-4,7,10,13,16,19-hexaenoic acid]
[5]
  anti-inflammatory capability among ALA, DHA and EPA: highest anti-inflammatory capability

## C[S+](C)[O-] [dimethyl sulfoxide]
[6]
  LD50: 14,500 mg/kg

## CC(O)CO (centres unmarked) [propylene glycol]
[6]
  LD50: 20,000 mg/kg

Reference: patent US12678451B2, “Cannabinoid and omega fatty acid compositions and methods of using” (GreenWay Herbal Products, LLC, priority 2019, dated 2026)
